Assay results reported in patent US20250230138A1, “COMPOUNDS HAVING A T-STRUCTURE FORMED BY AT LEAST FOUR CYCLES FOR USE IN THE TREATMENT OF CANCER AND OTHER INDICATIONS” (TheRas, Inc., priority 2022, published 2025).
Read-outs that look alike come from different tables or passages of the source.

Key:
[1] = system: pAKT in BT474 cells; assay: Cell-based pAKT HTRF assay in BT474 cells; conditions: BT474 cells, 4 hr incubation, read-out: pAKT inhibition IC50 in BT474 cells
Method in brief: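 BT474 cells in DMEM/10% FBS were treated the day after seeding with a 9-point, 3-fold compound series from 3 μM (0.25% DMSO) for 4 hr. Lysates were mixed with d2 and Eu cryptate anti-pAKT antibodies and incubated 4-24 h at room temperature. HTRF was read with excitation at 320 nm and emission at 615 nm.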

[2] = molecular target: Cys242 in human PIK3CA (157-299) (Homo sapiens (Human), UniProt P42336); assay: Covalent modification assay using MALDI-TOF MS; format: biochemical; conditions: 4 h reaction time point
Sequence of Cys242 in human PIK3CA (157-299) (P42336 157-299): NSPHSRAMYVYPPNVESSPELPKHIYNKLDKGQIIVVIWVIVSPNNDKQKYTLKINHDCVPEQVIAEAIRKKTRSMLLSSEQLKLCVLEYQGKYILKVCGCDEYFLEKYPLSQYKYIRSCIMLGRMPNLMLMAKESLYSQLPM
Method in brief: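 PIK3CA (157-299) at 3.33 μM or 1 μM in 20 mM HEPES, 150 mM NaCl, 2 mM MgCl2, pH 7.3 was incubated with compound (from 10 mM DMSO stocks) in the dark at room temperature for 15 min, 30 min, 2 h or 4 h. Linear-mode MALDI-TOF peak heights gave percent modification.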

[3] = 3.33 μM protein target, 1:7.5 protein to compound ratio (compounds 1-852)
[4] = Homo sapiens, BT-474, Compounds 10-999
[5] = 1 μM protein target, 1:5 protein to compound ratio (compounds 853-1279)

C=CC(=O)N1Cc2cc(-c3nc(-c4cnn(C(F)F)c4)c4ccsc4c3-c3c(F)cc(F)cc3OCCOC)nn2CC1C (stereo not drawn) [Compound 772]
IC50 ([1]; Compounds 10-999): < 0.1 µM
% of modification [2, 3]: A (percent of modification of PIK3CA protein ≥75%)

C=CC(=O)N1CCc2nc(-c3nc(-c4ccc(=O)n(C)c4)c4ccsc4c3-c3ccc(F)cc3OCCOC)sc2C1 [Compound 164]
IC50 ([1]; Compounds 10-999): < 0.1 µM
% of modification [2, 3]: A (percent of modification of PIK3CA protein ≥75%)

C=CC(=O)N1CCn2nc(-c3nc(-c4cnn(C)c4)c4ccsc4c3-c3ccc(F)cc3OC(C)C)cc2C1 [Compound 200, 1-[2-[7-(4-fluoro-2-isopropoxy-phenyl)-4-(1-methylpyrazol-4-yl)thieno[3,2-c]pyridin-6-yl]-6,7-dihydro-4H-pyrazolo[1,5-a]pyrazin-5-yl]prop-2-en-1-one]
IC50 [1, 4]: < 0.1 µM
% of modification [2, 3]: A (percent of modification of PIK3CA protein ≥75%)

C=CC(=O)N1Cc2cc(-c3nc(-c4cnc(C)nc4)c4ccsc4c3-c3c(F)cc(F)cc3OCCOC)nn2C[C@H]1C [Compound 686]
IC50 ([1]; Compounds 10-999): < 0.1 µM
% of modification [2, 3]: A (percent of modification of PIK3CA protein ≥75%)

C=CC(=O)N1CCn2nc(-c3nc(-c4ccc5c(c4)CCN(C)CC5)c4ccsc4c3-c3c(F)cc(F)cc3OCCOC)cc2C1C (stereo not drawn) [Compound 994]
IC50 ([1]; Compounds 10-999): 0.1 to 1 µM
% of modification [2, 5]: D (percent of modification <25%)

C=CC(=O)N1Cc2cc(-c3nc(-c4ccc5c(c4)N(C)C(=O)C5)c4ccsc4c3-c3c(F)cc(F)cc3OCCOC)nn2C[C@H]1C [Compound 692]
IC50 ([1]; Compounds 10-999): < 0.1 µM
% of modification [2, 3]: A (percent of modification of PIK3CA protein ≥75%)

C=CC(=O)N1CCn2nc(-c3nc(-c4cc5cnn(C)c5cc4F)c4ccsc4c3-c3c(F)cc(F)cc3OCCOC)cc2[C@H]1C [Compound 1164]
IC50 ([1]; Compounds 1000-1279): < 0.1 µM
% of modification [2, 5]: A (percent of modification of PIK3CA protein ≥75%)

C=CC(=O)N1CCn2nc(-c3nc(-c4cnn(C)c4)c4ccsc4c3-c3ccc(F)cc3OCCOC)nc2C1 [Compound 191]
IC50 ([1]; Compounds 10-999): < 0.1 µM
% of modification [2, 3]: A (percent of modification of PIK3CA protein ≥75%)

C=CC(=O)N1Cc2cc(-c3nc(-c4ccc5ncn(C)c(=O)c5c4)c4ccsc4c3-c3c(F)cc(F)cc3OCCOC)nn2C[C@H]1C [Compound 842]
IC50 ([1]; Compounds 10-999): < 0.1 µM
% of modification [2, 3]: A (percent of modification of PIK3CA protein ≥75%)

C=CC(=O)N1CCn2nc(-c3nc(-c4ccc5c(C)n(C)nc5c4)c4ccsc4c3-c3c(F)cc(F)cc3OCCO)cc2C1C (stereo not drawn) [Compound 1076]
IC50 ([1]; Compounds 1000-1279): < 0.1 µM
% of modification [2, 5]: A (percent of modification of PIK3CA protein ≥75%)

C=CC(=O)N1Cc2cc(-c3nc(N4CCc5c(cnn5C)C4)c4ccsc4c3-c3c(F)cc(F)cc3OCCOC)nn2CC1C (stereo not drawn) [Compound 949]
IC50 ([1]; Compounds 10-999): < 0.1 µM
% of modification [2, 5]: A (percent of modification of PIK3CA protein ≥75%)

C=CC(=O)N1CCn2nc(-c3nc(-c4cnc5cnn(C)c5c4)c4ccsc4c3-c3c(F)cc(F)cc3OCCO)cc2C1C (stereo not drawn) [Compound 901]
IC50 ([1]; Compounds 10-999): < 0.1 µM
% of modification [2, 5]: A (percent of modification of PIK3CA protein ≥75%)

C=CC(=O)N1CCn2nc(-c3nc(-c4ccc5c(c4)C(=O)NC5)c4ccsc4c3-c3c(F)cc(F)cc3OCC(C)O)cc2C1C (stereo not drawn) [Compound 879]
IC50 ([1]; Compounds 10-999): < 0.1 µM
% of modification [2, 5]: A (percent of modification of PIK3CA protein ≥75%)

C=CC(=O)N1CC(n2cc(-c3nc(N4CCC5(CC4)CNC(=O)C5)c4ccsc4c3-c3ccc(F)cc3OCCOC)cn2)C1 [Compound 150]
IC50 ([1]; Compounds 10-999): 0.1 to 1 µM
% of modification [2, 3]: A (percent of modification of PIK3CA protein ≥75%)

COCCOc1cc(F)cc(F)c1-c1c(-c2cc3n(n2)CCN(C(=O)CCl)[C@@H]3C)nc(-c2ccc3c(cnn3C)c2)c2ccsc12 [Compound 1225]
IC50 ([1]; Compounds 1000-1279): > 1 µM
% of modification [2, 5]: A (percent of modification of PIK3CA protein ≥75%)

C=CC(=O)N1CCn2nc(-c3nc(-c4cnc5c(c4)CN(C)CC5)c4ccsc4c3-c3ccc(F)cc3OC)cc2C1 [Compound 288]
IC50 ([1]; Compounds 10-999): < 0.1 µM
% of modification [2, 3]: A (percent of modification of PIK3CA protein ≥75%)

C=CC(=O)N1CCn2nc(-c3nc(-c4ccc5c(c4)CCN(C)C5)c4ccsc4c3-c3ccc(F)cc3OC(C)C)nc2C1 [Compound 271]
IC50 ([1]; Compounds 10-999): < 0.1 µM
% of modification [2, 3]: A (percent of modification of PIK3CA protein ≥75%)

C=CC(=O)N1CCn2nc(-c3nc(-c4cnnc(C5CC5)c4)c4ccsc4c3-c3c(F)cc(F)cc3OCCOC)cc2C1C (stereo not drawn) [Compound 1030]
IC50 ([1]; Compounds 1000-1279): < 0.1 µM
% of modification [2, 5]: A (percent of modification of PIK3CA protein ≥75%)

C=CC(=O)N1CCn2nc(-c3nc(N4CCN(C(C)C)CC4)c4ccsc4c3-c3ccc(F)cc3OC(C)C)cc2C1 [Compound 208]
IC50 ([1]; Compounds 10-999): < 0.1 µM
% of modification [2, 3]: A (percent of modification of PIK3CA protein ≥75%)

C=CC(=O)N1CCn2nc(-c3nc(-c4ccn(C)c(=O)c4)c4ccsc4c3-c3c(F)cc(F)cc3OCCOC)cc2C1C (stereo not drawn) [Compound 986]
IC50 ([1]; Compounds 10-999): < 0.1 µM
% of modification [2, 5]: A (percent of modification of PIK3CA protein ≥75%)

C=CC(=O)N1CCc2nc(-c3nc(-c4ccc5c(c4)CCN(C)C5)c4ccsc4c3-c3c(F)cc(F)cc3OCCOC)sc2C1 (single isomer, unassigned) [Compound 449]
IC50 ([1]; Compounds 10-999): 1 to 3 µM
% of modification [2, 3]: D (percent of modification <25%)

C=CC(=O)N1CCn2nc(-c3nc(-c4cnnc(C)c4)c4ccsc4c3-c3c(F)cc(F)cc3OCC(C)O)cc2C1C (stereo not drawn) [Compound 823]
IC50 ([1]; Compounds 10-999): < 0.1 µM
% of modification [2, 3]: A (percent of modification of PIK3CA protein ≥75%)

C=CC(=O)N1CCn2nc(-c3nc(-c4ccc5c(c4)C(=O)NC5)c4ccsc4c3-c3c(F)cc(F)cc3OCCOC)cc2[C@H]1C [Compound 845, 6-((S)-6-((R)-5-acryloyl-4-methyl-4,5,6,7-tetrahydropyrazolo[1,5-a]pyrazin-2-yl)-7-(2,4-difluoro-6-(2-methoxyethoxy)phenyl)thieno[3,2-c]pyridin-4-yl)isoindolin-1-one]
IC50 [1, 4]: < 0.1 µM
% of modification [2, 3]: A (percent of modification of PIK3CA protein ≥75%)

C=CC(=O)N1CC(n2nc(C)c(-c3nc(-c4ccc5c(c4)CCNC5)c4ccsc4c3-c3ccc(F)cc3OC)c2C)C1 [Compound 165]
IC50 ([1]; Compounds 10-999): < 0.1 µM
% of modification [2, 3]: A (percent of modification of PIK3CA protein ≥75%)

C=CC(=O)N1CCn2nc(-c3nc(-c4cnc(C)nc4)c4ccsc4c3-c3c(F)cc(F)cc3OCCOC)cc2C1C (stereo not drawn) [Compound 792]
IC50 ([1]; Compounds 10-999): < 0.1 µM
% of modification [2, 3]: A (percent of modification of PIK3CA protein ≥75%)

C=CC(=O)N1Cc2cc(-c3nc(-c4ccc5cn(C)nc5c4)c4ccsc4c3-c3c(F)cc(F)cc3OC[C@@H](C)O)nn2C[C@H]1C [Compound 752]
IC50 ([1]; Compounds 10-999): < 0.1 µM
% of modification [2, 3]: A (percent of modification of PIK3CA protein ≥75%)

C=CC(=O)N1Cc2cc(-c3nc(-c4ccc5c(c4)CCN(C)C5)c4ccsc4c3-c3c(F)cc(F)cc3OC[C@@H](C)O)nn2C[C@H]1C [Compound 605]
IC50 ([1]; Compounds 10-999): < 0.1 µM
% of modification [2, 3]: A (percent of modification of PIK3CA protein ≥75%)

C=CC(=O)N1CCc2nc(-c3nc(-c4ccc5c(c4)CCNC5)c4ccsc4c3-c3c(F)cc(F)cc3OCCOC)sc2C1 [Compound 366]
IC50 ([1]; Compounds 10-999): 0.1 to 1 µM
% of modification [2, 3]: A (percent of modification of PIK3CA protein ≥75%)

C=CC(=O)N1CCn2nc(-c3nc(-c4ccc5c(c4)C4(CC4)CN(C)C5)c4ccsc4c3-c3c(F)cc(F)cc3OCCO)cc2C1C (stereo not drawn) [Compound 1197]
IC50 ([1]; Compounds 1000-1279): < 0.1 µM
% of modification [2, 5]: A (percent of modification of PIK3CA protein ≥75%)

C=CC(=O)N1CCn2nc(-c3nc(-c4cccc(CN(C)C)c4)c4ccsc4c3-c3c(F)cc(F)cc3OCCOC)cc2C1C (stereo not drawn) [Compound 1061]
IC50 ([1]; Compounds 1000-1279): < 0.1 µM
% of modification [2, 5]: A (percent of modification of PIK3CA protein ≥75%)

C=CC(=O)N1CCc2nc(-c3nc(-c4ccc5c(c4)NC(=O)C5)c4ccsc4c3-c3ccc(F)cc3OCCOC)sc2C1 [Compound 163]
IC50 ([1]; Compounds 10-999): < 0.1 µM
% of modification [2, 3]: A (percent of modification of PIK3CA protein ≥75%)

C=CC(=O)N1CCn2nc(-c3nc(-c4ccc5ncn(C)c5c4)c4ccsc4c3-c3c(F)cc(F)cc3OCCO)cc2[C@@H]1C [Compound 645]
IC50 ([1]; Compounds 10-999): < 0.1 µM
% of modification [2, 3]: A (percent of modification of PIK3CA protein ≥75%)

C=C(F)C(=O)N1CCn2nc(-c3nc(-c4cnn(C)c4)c4ccsc4c3-c3ccc(F)cc3OC(C)C)cc2C1 [Compound 295]
IC50 ([1]; Compounds 10-999): 0.1 to 1 µM
% of modification [2, 3]: B (50%<percent of modification <75%)
